Test [1] deals with SK-MEL-28 cells. Kind of test: Cytotoxicity in low glucose condition (MTT assay). Format: cell-based. The conditions noted are these: Homo sapiens, SK-MEL-28, 72 h, 0.75 mM glucose, 72 hours treatment, read-out: SK-MEL-280.75 mM glucose cell viability (IC50 μM). An excerpt:
Cytotoxicity Assay in Low Glucose Condition
The inhibition of oxidative phosphorylation (OXPHOS) is not cytotoxic to cells in normal glucose condition, because it is postulated that normal cells have compensatory mechanism under energy stress conditions such as low glucose. However OXPHOS inhibitors show cytotoxic effect on cells in the glucose deprived condition (BirsoyK, 2014). The glucose deprived condition is observed in tumor microenvironment potentially due to poor angiogenesis. Therefore the OXPHOS inhibitors may show anti-cancer effect on cancer cells in low glucose condition that may depict tumor microenvironment.
The compounds of the present invention were evaluated their cytotoxicity in SK-MEL-28, melanoma with 0.75 mM glucose supplement. The cytotoxic effect is compared with the cytotoxicity caused by phenformin. The cytotoxicity in low glucose condition is correlated with inhibition of oxygen consumption in mitochondria.
SK-MEL-28 (HTB-72) is a melanoma cell line obtained from ATCC (MA) and cultured in RPMI 1640 media (Lifetechnologies, CA) with supplement of 10% FBS and antibiotic-antimycotic (Lifetechnologies, CA). RPMI 1640 (−Glucose) was used to prepare low glucose media and 0.75 mM glucose was supplied with D-(+)-glucose solution from Sigma. SK-MEL-28 cells were separated from culture plate using 0.5% trypsin-EDTA and 1,250 cells were plated in 96-well plate with low glucose media. After incubation at 37° C. for 24 hour, 5% CO2, the cells were treated with the compounds of present invention in FBS-free media for 72 hours. The cytotoxicity was measured by the MTT (AMRESCO, OH) assay. NADH-dependent cellular oxidoreductase reduces MTT to its insoluble […] with purple color. The enzyme depends on cell number or energy state of cells. 10 μl of 5 mg/ml MTT solution was added to each well of the assay plate and skip the well for blank. The plate was incubated at 37° C. and 5% CO2 for 2 hours. The MTT solution was removed from each well and 100 μl of DMSO was added. The plate was read by VICTOR X3 Multilabel Counter at the wavelength of 550 nm. In Table 2, the levels of IC50 are evaluated by the following criteria.
According to the concentration of compound for killing the half of cell populations (the levels of IC50), the compounds were classified into A, B and C, when the compounds were treated on SK-MEL-28 cells at 0.75 mM glucose.
A general note: Tetrazolium dyes change colour on reduction, which living cells bring about.

Test [2] relates to A549 cells. In words: Test for inhibition of OCR and enhancement of ECAR (XF Analyzer). As to conditions: Homo sapiens, 24 hrs treatment, oxygen consumption rate. The format is cell-based. An excerpt:
Measurement of Mitochondrial Complex I Inhibition
The electron transfer complex in mitochondria is composed of 5 complexes. The complex I accept electrons from NADH produced from glycolysis and TCA cycle and the electrons move to complex […] and the electron is finally transferred to O2 and water molecule is generated. During the electron transfer, proton gradient is generated and the chemical gradient is a driving source to synthesize ATP at complex V. The mitochondrial inhibition of complex I indirectly assessed by measuring the oxygen consumption rate (OCR) at complex IV. […] The solution outside of cells becomes acidic (lower pH) as lactate is transported to outside of cells. OCR and Extracellular acidification rate (ECAR) are determined by XF Analyzer (Seahorse Biosciences).
A549 cells were purchased from American Type Tissue Culture Collection (CCL-185™) and cultured in RPMI 1640 supplied with 10% fetal bovine serum (FBS) and antibiotic-antimycotic (Lifetech, CA). A549 cells were separated with 0.5% Trypsin-EDTA and 3,000 cells were plated on 1 mg/ml poly-D-lysine (Sigma, P6407) coated XF 96 well […]. A549 cells were allowed to adhere to the wells for 24 hours under the condition of temperature, 37° C. and 5% CO2. The sensor cartridge of XF Analyzer was soaked in 200 μl of Calibrant solution (Seahorse, MA) in a clear 96-well plate at 37° C. for 24 hours. The compounds of the present invention were diluted with RPMI 1640 without FBS, transferred to A549 cells on XF 96 well plate, and incubated further for 23 hours at 37° C. and 5% CO2. After incubation, the compound solution was exchanged with pre-warmed and pH adjusted (pH7.4) XF assay media (Seahorse) supplied with 15 mM D-glucose (Sigma), 15 mM sodium pyruvate (Lifetechnologies, CA) and 4 mM L-glutamine (Lifetechnologies, CA). The compounds of present invention were prepared in XF Assay media and added to the assay plate. The assay plate was equilibrated in XF Analyzer for 1 hour, and the reading were started by sensor cartridge. The cytotoxicity assay was followed using Cyquant (Lifetechnologies, CA) in order to calibrate the inhibition with cytotoxicity of compounds. The concentrations of the compounds were tested at 0, 0.5, 1, 5, 10 and 20 μM and IC50 value was obtained from the inhibited values. That is, from OCR inhibition values at each concentration of the compound, IC50 was calculated according to Prism's dose response curve fitting.
In Table 1, the levels of OCR IC50 are evaluated by the following.
According to the test results of the compounds, the compounds were classified into A, B and C.

Structures can show the parent of a compound that is named as a salt. Bounds are passed on as bounds.

In general, IC50 refers to the concentration that gives 50% inhibition. For `N=C(NC(=N)N1CCC(F)(F)CC1)Nc1ccccc1` [Example 1, N—(N-phenylcarbamimidoyl)-4,4-difluoropiperidine-1-carboximidamide hydrochloride], the IC50 in test [1] is greater than 15 µM.

Take `N=C(NC(=N)N1CCC(F)(F)CC1)Nc1ccc2c(c1)CCCC2` [Example 2, N—(N-(5,6,7,8-teterhydronaphthalene-2-yl)carbamimidoyl)-4,4-difluoro piperidine-1-carboximidamide hydrochloride]: the results for the IC50 in test [2] and in test [1] were greater than 4 µM and 6 to 15 µM, respectively.

Turning to `N=C(NC(=N)N1CCC(F)(F)CC1)Nc1ccc(Cl)c(Cl)c1` [Example 3, N—(N-(3,4-dichlorophenyl)carbamimidoyl)-4,4-difluoropiperidine-1-carboximidamide hydrochloride], the IC50 in test [2] was greater than 4 µM; in test [1], less than 6 µM.

Take `N=C(NC(=N)N1CCC(F)(F)CC1)Nc1ccccc1Br` [Example 4, N—(N-(2-bromophenyl)carbamimidoyl)-4,4-difluoropiperidine-1-carboximidamide hydrochloride]: in test [1], the 50% inhibitory concentration (IC50) was greater than 15 µM.

On to `N=C(NC(=N)N1CCC(F)(F)CC1)Nc1cccc(Br)c1` [Example 5, N—(N-(3-bromophenyl)carbamimidoyl)-4,4-difluoropiperidine-1-carboximidamide hydrochloride], for which the IC50 in test [2] was greater than 4 µM; in test [1] it was 6 to 15 µM.

Take `N=C(NC(=N)N1CCC(F)(F)CC1)Nc1ccc(Br)cc1` [Example 6, N—(N-(4-bromophenyl)carbamimidoyl)-4,4-difluoropiperidine-1-carboximidamide hydrochloride]: the IC50 in test [2] is greater than 4 µM; in test [1], 6 to 15 µM.

Consider `CSc1ccc(NC(=N)NC(=N)N2CCC(F)(F)CC2)cc1` [Example 8, N—(N-(4-(methythio)phenyl)carbamimidoyl)-4,4-difluoropiperidine-1-carboximidamide hydrochloride], for which the IC50 in test [2] is greater than 4 µM; in test [1], 6 to 15 µM.

In the case of `N=C(NC(=N)N1CCC(F)(F)CC1)Nc1ccc(SC(F)(F)F)cc1` [Example 9, N—(N-(4-(trifluoromethythio)phenyl)carbamimidoyl)-4,4-difluoro piperidine-1-carboximidamide hydrochloride], the IC50 in test [2] is 2 to 4 µM; in test [1], less than 6 µM.

As to `CC(C)c1ccc(NC(=N)NC(=N)N2CCC(F)(F)CC2)cc1` [Example 10, N—(N-(4-isopropylphenyl)carbamimidoyl)-4,4-difluoropiperidine-1-carboximidamide hydrochloride], the 50% inhibitory concentration (IC50) is greater than 4 µM in test [2] and 6 to 15 µM in test [1].

Turning to `N=C(NC(=N)N1CCC(F)(F)CC1)Nc1ccc(F)c(Cl)c1` [Example 11, N—(N-(3-chloro-4-fluorophenyl)carbamimidoyl)-4,4-difluoropiperidine-1-carboximidamide hydrochloride], the half-inhibitory concentration (IC50) was greater than 4 µM in test [2] and 6 to 15 µM in test [1].

Regarding `N=C(NC(=N)N1CCC(F)(F)CC1)Nc1cccc(Oc2ccccc2)c1` [Example 13, N—(N-(3-phenoxyphenyl)carbamimidoyl)-4,4-difluoropiperidine-1-carboximidamide hydrochloride], the IC50 in test [2] was 2 to 4 µM; in test [1], less than 6 µM.

As for `N=C(NC(=N)N1CCSC1)Nc1ccc(SC(F)(F)F)cc1` [Example 14, N—(N-(4-(trifluoromethythio)phenyl)carbamimidoyl)thiazolidine-3-carboximidamide hydrochloride], the values for the concentration for half-maximal inhibition (IC50) in test [2] and in test [1] were 2 to 4 µM and less than 6 µM, respectively.

On to `N=C(NC(=N)N1CCC(F)(F)CC1)Nc1ccc(OC(F)(F)F)cc1` [Example 17, N—(N-(4-(trifluoromethoxy)phenyl)carbamimidoyl)-4,4-difluoropiperidine-1-carboximidamide acetate], for which the IC50 in test [2] was in the range of 2 to 4 µM.

In the case of `N=C(NC(=N)N1CCC(F)(F)CC1)Nc1ccc(I)c(Cl)c1` [Example 18, N—(N-(3-chloro-4-iodophenyl)carbamimidoyl)-4,4-difluoropiperidine-1-carboximidamide acetate], the half-maximal inhibitory concentration (IC50) in test [2] lay in the range of 2 to 4 µM.

Consider `N=C(NC(=N)N1CCC(F)(F)CC1)Nc1ccc(C(F)(F)F)cc1` [Example 21, N—(N-(4-(trifluoromethyl)phenyl)carbamimidoyl)-4,4-difluoropiperidine-1-carboximidamide acetate], for which the values for the IC50 in test [2] and in test [1] were 2 to 4 µM and less than 6 µM, respectively.

`N=C(NC(=N)N1CCC(F)(F)CC1)Nc1ccc(I)c(Br)c1` [Example 22, N—(N-(3-bromo-4-iodophenyl)carbamimidoyl)-4,4-difluoropiperidine-1-carboximidamide acetate]: the results for the IC50 in test [2] and in test [1] were 2 to 4 µM and less than 6 µM, respectively.

For `N=C(NC(=N)N1CCC(F)(F)CC1)Nc1ccc(Oc2ccccc2)cc1` [Example 23, N—(N-(4-phenoxyphenyl)carbamimidoyl)-4,4-difluoropiperidine-1-carboximidamide acetate], the IC50 in test [2] was 2 to 4 µM; in test [1], less than 6 µM.

On to `N=C(NC(=N)N1CCC(F)(F)C1)Nc1ccc(OC(F)(F)F)cc1` [Example 25, N—(N-(4-(trifluoromethoxy)phenyl)carbamimidoyl)-3,3-difluoropyrrolidine-1-carboximidamide acetate], for which the IC50 is 2 to 4 µM in test [2] and less than 6 µM in test [1].

Regarding `N=C(NC(=N)N1CCC(F)(F)CC1)Nc1ccc(Br)c(Br)c1` [Example 26, N—(N-(3,4-dibromophenyl)carbamimidoyl)-4,4-difluoropiperidine-1-carboximidamide acetate], the results for the IC50 in test [2] and in test [1] were 2 to 4 µM and 6 to 15 µM, respectively.

Turning to `N=C(NC(=N)N1CCC(F)(F)CC1)Nc1ccc(OC(F)(F)F)c(F)c1` [Example 27, N—(N-(3-fluoro-4-(trifluoromethoxy)phenyl)carbamimidoyl)-4,4-fluoropiperidine-1-carboximidamide acetate], the IC50 in test [2] was less than 2 µM; in test [1] it was less than 6 µM.

Take `N=C(NC(=N)N1CCC(F)(F)C1)Nc1ccc(OC(F)(F)F)c(Br)c1` [Example 39, N—(N-(3-bromo-4-(trifluoromethoxy)phenyl)carbamimidoyl)-3,3-difluoropyrrolidine-1-carboximidamide acetate]: the IC50 in test [2] is 2 to 4 µM.

Regarding `N=C(NCc1ccccc1Br)NC(=N)N1CCC(F)(F)CC1` [Example 40, N—(N-(2-bromobenzyl)carbamimidoyl)-4,4-difluoropiperidine-1-carboximidamide hydrochloride], the IC50 in test [2] is greater than 4 µM.

`N=C(NCc1ccc(Br)cc1)NC(=N)N1CCC(F)(F)CC1` [Example 55, N—(N-(4-bromobenzyl)carbamimidoyl)-4,4-difluoropiperidine-1-carboximidamide acetate]: the IC50 in test [2] is greater than 4 µM.

(Values after patent publication US10590081B2, “Guanidine compounds and use thereof” (ImmunoMet Therapeutics Inc., priority 2015, dated 2020).)
